According to PubChem BioAssay AID1417 (Emory University Molecular Libraries Screening Center, 2008):

Molecular target: Induced myeloid leukemia cell differentiation protein Mcl-1 (Homo sapiens) (UniProt Q07820)
Experiment: Mcl-1/Noxa binding inhibitor potency, dose response, biochemical, TR-FRET (AID 1417)
Conditions: Mcl-1/Noxa peptide interaction, cell-free TR-FRET (terbium/rhodamine), 2 h; measured here: absolute IC50

Chain of Induced myeloid leukemia cell differentiation protein Mcl-1 (Homo sapiens) (Q07820 whole entry, looked up): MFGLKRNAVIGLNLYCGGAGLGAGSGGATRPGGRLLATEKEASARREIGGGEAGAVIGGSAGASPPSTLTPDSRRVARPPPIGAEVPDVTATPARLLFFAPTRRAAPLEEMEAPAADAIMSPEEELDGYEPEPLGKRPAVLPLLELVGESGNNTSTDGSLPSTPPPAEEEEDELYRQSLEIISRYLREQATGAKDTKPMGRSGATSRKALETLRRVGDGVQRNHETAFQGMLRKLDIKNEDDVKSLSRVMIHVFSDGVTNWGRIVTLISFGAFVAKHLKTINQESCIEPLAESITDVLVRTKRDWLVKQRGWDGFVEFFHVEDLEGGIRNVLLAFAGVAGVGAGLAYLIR

SMILES: Nc1ccc2c(c1Cl)C(=O)c1ccc(N)c(Cl)c1C2=O
- IC50: < 400 nM

SMILES: Cc1c(O)ccc(/C=N/Nc2nc(-c3cccnc3)nc3ccccc23)c1O
- IC50: < 400 nM

SMILES: Cc1cc(C)c(S(=O)(=O)NCc2cn3c(C)csc3n2)cc1C
- IC50: > 54000 nM

SMILES: COC(=O)c1cc(-c2ccc(C)o2)nc2ccccc12
- IC50: 14800 nM

SMILES: Nc1c(C(=O)NCCN2CCOCC2)c2nc3ccccc3nc2n1Cc1ccco1
- IC50: > 54000 nM

SMILES: O=C(c1ccccc1)c1ccc2nc(-c3ccco3)c(-c3ccco3)nc2c1
- IC50: 4340 nM

SMILES: COc1ccc(NC(=O)Cc2c(SC)c3ccccc3n2Cc2ccccc2)cc1
- IC50: > 54000 nM

SMILES: C=CCOc1c(OC)cc(/C=N/Nc2cccc(C(=O)O)c2)c(Br)c1Br
- IC50: > 54000 nM

SMILES: CCc1n[nH]c(=S)n1/N=C/c1cc(OC)cc([N+](=O)[O-])c1O
- IC50: < 400 nM

SMILES: COc1cc(/C=N\Nc2nc(-c3cccs3)c(NC(C)=O)s2)ccc1O
- IC50: < 400 nM

SMILES: CS(=O)(=O)c1ccc2c(c1)sc1nc(=O)c(/C=C3/C=CC(=O)C(O)=C3)c(N)n12
- IC50: < 400 nM

SMILES: Cc1ccc(CSc2nnc(SCC(=O)N/N=C/c3c[nH]c4ccccc34)s2)cc1
- IC50: 10100 nM

SMILES: CCN(CC)Cc1cc(O)c(CN(CC)CC)cc1O
- IC50: < 400 nM

SMILES: Cc1cc(C)c2nc(-c3ccccn3)cc(C(=O)Nc3ccc(S(=O)(=O)Nc4onc(C)c4C)cc3)c2c1
- IC50: 2820 nM

SMILES: CC(/C=C1\SC(=S)N(NS(=O)(=O)c2ccc(C)cc2)C1=O)=C\c1ccccc1
- IC50: 5660 nM

SMILES: Nc1ccc(N)c(C(=O)O)c1
- IC50: 1310 nM

SMILES: CN1C=C/C(=C\c2cc[n+](C)c3ccccc23)c2ccccc21
- IC50: < 400 nM

SMILES: O=[N+]([O-])c1ccc(-c2c[nH]c(=S)[nH]2)cc1
- IC50: 800 nM

SMILES: CN(C)c1ccc(/C=c2\sc3nc(-c4ccccc4)nn3c2=O)cc1
- IC50: 8800 nM

SMILES: CCOC(=O)c1c(NC(=O)c2cc(-c3ccc(O)cc3)on2)sc(C(C)=O)c1C
- IC50: 10900 nM

SMILES: Oc1c(Br)cc(C=Nc2ccc3nc(-c4ccccc4)[nH]c3c2)c(O)c1Br
- IC50: 594 nM

SMILES: O=C(O)c1ccc(N2C(=O)/C(=C/c3ccc(-c4ccc([N+](=O)[O-])cc4)o3)C=C2c2ccccc2)cc1
- IC50: < 400 nM

SMILES: CC(=O)Nc1ccc(C2=NNC(=Nc3ccc(S(=O)(=O)N4CCOCC4)cc3)SC2)cc1
- IC50: < 400 nM

SMILES: CNC(=S)Nc1sc2c(c1C(=O)OC)CCC2
- IC50: 1320 nM

SMILES: CC(=O)Nc1ccc(C(=O)Nc2cccc(-c3cnc4ccccc4n3)c2)cc1
- IC50: > 54000 nM

SMILES: O=C(CSc1nnc(-c2ccco2)c(-c2ccco2)n1)c1ccccc1
- IC50: 3700 nM

SMILES: O=C1CCCCC1C(=O)c1ccccc1 (configuration not stated)
- IC50: > 54000 nM

SMILES: COc1ccc(O)c(C(=O)c2cc(SCC(=O)O)c3nc4sc5c(c4c(=O)n3c2)CCCC5)c1
- IC50: < 400 nM

SMILES: O=C(OCC1O[C@@H](OC(=O)c2cc(O)c(O)c(O)c2)[C@@H](OC(=O)c2cc(O)c(O)c(O)c2)[C@@H](OC(=O)c2cc(O)c(O)c(O)c2)[C@@H]1OC(=O)c1cc(O)c(O)c(O)c1)c1cc(O)c(O)c(O)c1 (some centres not stated)
- IC50: < 400 nM

SMILES: Cc1ccc2c(c1C)NC(C(=O)O)C1CC=CC21 (configuration not stated)
- IC50: 1070 nM

SMILES: C/C(=N\NC(=O)c1cccc(N/N=C(\C)c2cc(O)ccc2O)c1)c1cc(O)ccc1O
- IC50: < 400 nM

SMILES: O=C(COc1cccnc1[N+](=O)[O-])c1ccc(Cl)s1
- IC50: 2840 nM

SMILES: CCN(c1ccc(NC(=O)c2ccc(Cl)nc2)cc1)C(C)C
- IC50: > 54000 nM

SMILES: Cc1ccc(NC(=O)CN2C(=O)N/C(=C/c3cccn3-c3ccc(C(=O)O)cc3)C2=O)cc1
- IC50: > 54000 nM

SMILES: O=C1CCCC2=C1C(c1ccco1)Nc1ccc3ccccc3c12 (configuration not stated)
- IC50: 2220 nM

SMILES: O=C1/C(=C\c2ccccn2)SC(=S)N1c1ccc(S(=O)(=O)Nc2nccs2)cc1
- IC50: 2690 nM

SMILES: CC(=O)c1cc(O)c2ccccc2c1O
- IC50: < 400 nM

SMILES: CC1CCN(c2ccc(NC(=O)Cc3ccccc3)cc2)CC1
- IC50: > 54000 nM

SMILES: CCOC(=O)C1=C(O)c2ccccc2C(=O)/C1=C\c1ccc(CC)cc1
- IC50: < 400 nM

SMILES: O=C1NC(=O)N(Cc2ccco2)C(=O)/C1=C/c1ccc(-c2cccc([N+](=O)[O-])c2)o1
- IC50: 3280 nM

SMILES: CSc1nc(NCCOCCO)c2sc3nc(-c4ccco4)c4c(c3c2n1)CCC4
- IC50: < 400 nM

SMILES: Cc1cc(NC(=O)CSc2nc(-c3ccc(F)cc3)cs2)no1
- IC50: > 54000 nM
